{"source": "patent US4888174A", "about": "“Insecticidal polymeric compositions” (priority 1988, dated 1989)", "experiment": "Absorption rate of chlorpyrifos onto LDPE and ethylene/acrylic acid (EAA) pellets", "assay_type": "physicochemical", "settings": "85° C.; for Actual Weight % Chlorpyrifos Found in Copolymer EAA: EAA (Primacor 1430) pellets; for % of Chlorpyrifos Absorbed onto Copolymer EAA: EAA pellets, relative to 0.88% maximum; for Actual Weight % Chlorpyrifos Found in LDPE / % of Chlorpyrifos Absorbed onto LDPE: LDPE pellets; for % of Chlorpyrifos Absorbed onto LDPE: relative to 0.90% maximum", "experimental": "A constant temperature oven is set at 85° C. by using a thermowatch controller and an infrared heat lamp. A wide mouth quart jar containing 247.5 g of 749 low density polyethylene (LDPE) or an equivalent amount of Primacor® 1430 pellets is placed into the oven and left overnight. Primacor® is a copolymer of ethylene/acrylic acid (EAA) containing 9 percent (%) by weight acrylic acid. Two and one-half grams of liquid Dursban® insecticide heated to 50° C. are added to each jar to give a calculated concentration of 1 percent chlorpyrifos in the polymer. The Dursban® insecticide contains 99 percent chlorpyrifos and 1 percent inert ingredients. The jar is shaken initially, returned to the oven, and then removed every 5 minutes and reshaken. A first sample of 10 pellets is taken from the jar after 15 minutes. The pellets are placed on an ice water bath for 1 minute, removed with tweezers and placed into a 50 ml beaker. The pellets are rinsed with 5 mls of acetone to remove excess water. The pellets are rinsed with 5 mls of methylene chloride to remove chlorpyrifos coated on the pellet surface. The solvent is decanted after each rinse and the pellets are dried by blowing nitrogen over them for three minutes. The pellets are weighed on an analytical balance, placed into a 2 ounce bottle and the chlorpyrifos absorbed by the pellets is extracted by shaking the pellets with 20 mls of chloroform on an automatic shaker overnight. The chloroform extract, after appropriate dilution, is measured at 292 nanometers wave length on an ultraviolet (UV) spectrophotometer. The absorbence of the sample extract is compared to a standard curve of absorbence from a known concentration of chlorpyrifos in chloroform. The absorption rate for the Primacor® 1430 pellets is determined in the same manner as the LDPE.", "key": {"[1]": {"settings": "assumed, based on a time of 180 minutes"}}, "data": [{"smiles": "CCOP(=S)(OCC)Oc1nc(Cl)c(Cl)cc1Cl", "note": "[Chlorpyrifos, O,O-diethyl-3,5,6-trichloro-2-pyridyl phosphorothioate]", "values": [{"measurement": "Actual Weight % Chlorpyrifos Found in Copolymer EAA", "setting": "0 minutes", "result": 0.0, "unit": "Weight %"}, {"measurement": "Actual Weight % Chlorpyrifos Found in Copolymer EAA", "setting": "15 minutes", "result": 0.71, "unit": "Weight %"}, {"measurement": "Actual Weight % Chlorpyrifos Found in Copolymer EAA", "setting": "30 minutes", "result": 0.80, "unit": "Weight %"}, {"measurement": "Actual Weight % Chlorpyrifos Found in Copolymer EAA", "setting": "45 minutes", "result": 0.85, "unit": "Weight %"}, {"measurement": "Actual Weight % Chlorpyrifos Found in Copolymer EAA", "setting": "60 minutes", "result": 0.84, "unit": "Weight %"}, {"measurement": "Actual Weight % Chlorpyrifos Found in Copolymer EAA", "setting": "90 minutes", "result": 0.83, "unit": "Weight %"}, {"measurement": "Actual Weight % Chlorpyrifos Found in Copolymer EAA", "setting": "120 minutes", "result": 0.95, "unit": "Weight %"}, {"measurement": "Actual Weight % Chlorpyrifos Found in Copolymer EAA", "setting": "150 minutes", "result": 0.86, "unit": "Weight %"}, {"measurement": "Actual Weight % Chlorpyrifos Found in Copolymer EAA", "setting": "180 minutes", "result": 0.88, "unit": "Weight %"}, {"measurement": "% of Chlorpyrifos Absorbed onto Copolymer EAA", "setting": "0 minutes", "result": 0.0, "unit": "%"}, {"measurement": "% of Chlorpyrifos Absorbed onto Copolymer EAA", "setting": "15 minutes", "result": 80.7, "unit": "%"}, {"measurement": "% of Chlorpyrifos Absorbed onto Copolymer EAA", "setting": "30 minutes", "result": 90.9, "unit": "%"}, {"measurement": "% of Chlorpyrifos Absorbed onto Copolymer EAA", "setting": "45 minutes", "result": 96.6, "unit": "%"}, {"measurement": "% of Chlorpyrifos Absorbed onto Copolymer EAA", "setting": "60 minutes", "result": 95.5, "unit": "%"}, {"measurement": "% of Chlorpyrifos Absorbed onto Copolymer EAA", "setting": "90 minutes", "result": 94.3, "unit": "%"}, {"measurement": "% of Chlorpyrifos Absorbed onto Copolymer EAA", "setting": "120 minutes", "result": 108.0, "unit": "%"}, {"measurement": "% of Chlorpyrifos Absorbed onto Copolymer EAA", "setting": "150 minutes", "result": 97.7, "unit": "%"}, {"measurement": "% of Chlorpyrifos Absorbed onto Copolymer EAA", "setting": "180 minutes", "result": 100.0, "unit": "%"}, {"measurement": "Actual Weight % Chlorpyrifos Found in LDPE", "setting": "0 minutes", "result": 0.0, "unit": "Weight %"}, {"measurement": "% of Chlorpyrifos Absorbed onto LDPE", "setting": "0 minutes", "result": 0.0, "unit": "%"}, {"measurement": "Actual Weight % Chlorpyrifos Found in LDPE", "setting": "15 minutes", "result": 0.64, "unit": "Weight %"}, {"measurement": "% of Chlorpyrifos Absorbed onto LDPE", "setting": "15 minutes", "result": 71.1, "unit": "%"}, {"measurement": "Actual Weight % Chlorpyrifos Found in LDPE", "setting": "30 minutes", "result": 0.76, "unit": "Weight %"}, {"measurement": "% of Chlorpyrifos Absorbed onto LDPE", "setting": "30 minutes", "result": 84.4, "unit": "%"}, {"measurement": "Actual Weight % Chlorpyrifos Found in LDPE", "setting": "45 minutes", "result": 0.86, "unit": "Weight %"}, {"measurement": "% of Chlorpyrifos Absorbed onto LDPE", "setting": "45 minutes", "result": 95.6, "unit": "%"}, {"measurement": "Actual Weight % Chlorpyrifos Found in LDPE", "setting": "60 minutes", "result": 0.91, "unit": "Weight %"}, {"measurement": "% of Chlorpyrifos Absorbed onto LDPE", "setting": "60 minutes", "result": 101.1, "unit": "%"}, {"measurement": "Actual Weight % Chlorpyrifos Found in LDPE", "setting": "90 minutes", "result": 0.89, "unit": "Weight %"}, {"measurement": "% of Chlorpyrifos Absorbed onto LDPE", "setting": "90 minutes", "result": 98.9, "unit": "%"}, {"measurement": "Actual Weight % Chlorpyrifos Found in LDPE", "setting": "120 minutes", "result": 0.92, "unit": "Weight %"}, {"measurement": "% of Chlorpyrifos Absorbed onto LDPE", "setting": "120 minutes", "result": 102.2, "unit": "%"}, {"measurement": "Actual Weight % Chlorpyrifos Found in LDPE", "setting": "150 minutes", "result": 1.07, "unit": "Weight %"}, {"measurement": "% of Chlorpyrifos Absorbed onto LDPE", "setting": "150 minutes", "result": 118.9, "unit": "%"}, {"measurement": "Actual Weight % Chlorpyrifos Found in LDPE", "setting": "180 minutes", "result": 0.90, "unit": "Weight %"}, {"measurement": "% of Chlorpyrifos Absorbed onto LDPE", "setting": "180 minutes", "result": 100.0, "unit": "%"}, {"measurement": "maximum absorption by the Copolymer EAA", "setting": "[1]", "result": 0.88, "unit": "% by weight"}, {"measurement": "maximum absorption of chlorpyrifos by the LDPE", "setting": "[1]", "result": 0.90, "unit": "% by weight"}]}]}
